This is an account of results in patent publication EP4806912A1, “DUAL AGONIST COMPOUND” (Chengdu Aoda Biotechnology Co., Ltd, priority 2023, dated 2025).

The target of data set [1] is T1, GLP-1R (Homo sapiens, UniProt P43220).
T1 construct: expressed in transfected cells; host or cells: CHO-K1
As to the kind of experiment: GLP-1 activity test (cAMP, chemiluminescence, CHO-K1 cell line stably expressing GLP-1R). The data set is classed as cell-based. The conditions noted are these: relative luminescence units, read-out: GLP-1 activity [EC50(pmol)]. As to the method: (§1) Upon stimulation by a specific agonist, GLP-1R activates the intracellular adenylate cyclase signaling pathway, resulting in an increase in cAMP levels and ultimately leading to insulin production and secretion. A cell line stably transfected with GLP-1R was stimulated with test compounds, thereby rapidly increasing intracellular cAMP levels. The relative luminescence units (RLU) of cells stimulated at various concentrations were measured by a chemiluminescence method, and the EC50 value of the agonist was calculated accordingly. This activity test method is currently a commonly used method for evaluating GLP-1 receptor agonist activity both domestically and internationally.
A CHO-K1 cell line stably expressing GLP-1R was used. The stable cells were stimulated with agonists at different concentrations, and the relative luminescence units after stimulation at each concentration were measured to calculate the EC50 value of the agonist.

Data set [2] addresses T2, GCG-R (Homo sapiens, UniProt P47871).
T2 construct: expressed in transfected cells; host or cells: CHO-K1
In words: GCG activity test (cAMP, chemiluminescence, CHO-K1 cell line stably expressing GCG-R). The data set is classed as cell-based. To be noted: relative luminescence units, read-out: GCG activity [EC50(nmol)]. The method, then: as §1, with “agonist, GCG-R” for “agonist, GLP-1R”, “with GCG-R” for “with GLP-1R”, “activity assay” for “activity test”, “evaluating GCG” for “evaluating GLP-1”
A CHO-K1 cell line stably expressing GCG-R was used. The stable cells were stimulated with agonists at different concentrations, and the relative luminescence units after stimulation at each concentration were measured to calculate the EC50 value of the agonist.

Data set [3] can be described thus: Preliminary pharmacokinetic evaluation in cynomolgus monkeys (plasma, LC-MS). The conditions noted are these: for half-life: cynomolgus monkey, male cynomolgus monkeys, subcutaneously (SC), 0.2 mg/kg, plasma; for half-lives: cynomolgus monkeys, administered subcutaneously. The data set is classed as in vivo. The method, then:
Among the above compounds, the principle of modification for long-acting was essentially the same.
The test animals were male cynomolgus monkeys. Two animals were used for each compound. The compounds were administered subcutaneously at a dose of 0.2 mg/kg. Blood samples were collected via intravenous sampling prior to administration (0 h) and at 1 h, 2 h, 3 h, 4 h, 8 h, 12 h, 18 h, 24 h, 48 h, 96 h, 144 h, and 168 h after administration. Plasma samples were obtained by centrifugation. The plasma concentrations of the compounds were respectively determined by liquid chromatography - mass spectrometry (LC-MS).

For orientation: EC50 means the concentration needed to bring the measured effect to its halfway point. The term half-life denotes the time in which the quantity being followed falls by half. A lower half-life goes with fast loss.

T2 sequence (P47871 26-477, species assumed): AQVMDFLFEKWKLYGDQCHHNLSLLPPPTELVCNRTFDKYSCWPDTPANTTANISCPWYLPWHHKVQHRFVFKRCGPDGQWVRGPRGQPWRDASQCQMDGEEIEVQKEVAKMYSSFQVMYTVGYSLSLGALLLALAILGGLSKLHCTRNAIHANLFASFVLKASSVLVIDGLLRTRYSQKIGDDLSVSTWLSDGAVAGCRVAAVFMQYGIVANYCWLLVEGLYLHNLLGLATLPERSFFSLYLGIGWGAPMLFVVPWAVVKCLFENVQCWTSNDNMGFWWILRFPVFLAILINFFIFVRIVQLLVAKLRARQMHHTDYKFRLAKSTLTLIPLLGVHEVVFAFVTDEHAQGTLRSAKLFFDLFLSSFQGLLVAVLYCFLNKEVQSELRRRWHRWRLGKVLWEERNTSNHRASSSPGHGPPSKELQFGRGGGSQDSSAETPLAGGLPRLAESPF
T1 sequence (P43220 24-463, species assumed): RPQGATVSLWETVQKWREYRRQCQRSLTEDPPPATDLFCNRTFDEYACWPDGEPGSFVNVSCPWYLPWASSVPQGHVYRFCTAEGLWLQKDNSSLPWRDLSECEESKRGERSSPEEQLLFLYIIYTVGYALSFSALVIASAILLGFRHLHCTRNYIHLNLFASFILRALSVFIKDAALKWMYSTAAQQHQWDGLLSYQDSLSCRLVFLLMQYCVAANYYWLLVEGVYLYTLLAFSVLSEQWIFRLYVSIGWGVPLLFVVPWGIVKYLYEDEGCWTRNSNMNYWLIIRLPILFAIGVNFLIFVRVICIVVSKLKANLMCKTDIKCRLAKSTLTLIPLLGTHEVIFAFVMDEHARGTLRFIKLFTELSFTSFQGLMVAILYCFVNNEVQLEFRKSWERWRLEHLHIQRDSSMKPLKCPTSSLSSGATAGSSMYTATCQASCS

With `CC(C)C[C@H](NC(=O)[C@H](CC(C)C)NC(=O)[C@H](Cc1c[nH]c2ccccc12)NC(=O)[C@H](CCC(=O)O)NC(=O)[C@@H](NC(=O)[C@H](Cc1ccccc1)NC(=O)[C@H](CCC(=O)O)NC(=O)[C@H](CCCCNC(=O)COCCOCCOCCOCCOCCNC(=O)CCCC[C@H](NC(=O)CCCCCCCCCCCCCCCCCCC(=O)O)C(=O)O)NC(=O)[C@H](C)NC(=O)[C@H](CCCCN)NC(=O)[C@H](CCCCN)NC(=O)[C@H](CCC(=O)O)NC(=O)[C@H](CC(=O)O)NC(=O)[C@H](CC(C)C)NC(=O)[C@H](Cc1ccc(O)cc1)NC(=O)[C@H](CCCCN)NC(=O)[C@H](CO)NC(=O)[C@H](Cc1ccc(O)cc1)NC(=O)[C@H](CC(=O)O)NC(=O)[C@H](CO)NC(=O)[C@@H](NC(=O)C(C)(Cc1ccccc1F)NC(=O)[C@@H](NC(=O)CNC(=O)[C@H](CCC(N)=O)NC(=O)C(C)(C)NC(=O)[C@@H](N)Cc1c[nH]cn1)[C@@H](C)O)[C@@H](C)O)C(C)C)C(=O)N[C@@H](CCC(=O)O)C(=O)NCCCCC(=O)N1CCC[C@H]1C(=O)N[C@@H](CO)C(=O)N[C@@H](CO)C(=O)NCC(=O)N[C@@H](C)C(=O)N1CCC[C@H]1C(=O)N1CCC[C@H]1C(=O)N1CCC[C@H]1C(=O)N[C@@H](CO)C(N)=O` (some centres unmarked) [Compound 11], the EC50 in data set [1] is 0.0872 nM; in data set [2], 1.5 nM.

`CC(C)C[C@H](NC(=O)[C@H](CC(C)C)NC(=O)[C@H](Cc1c[nH]c2ccccc12)NC(=O)[C@H](CCC(=O)O)NC(=O)[C@@H](NC(=O)[C@H](Cc1ccccc1)NC(=O)[C@H](CCC(=O)O)NC(=O)[C@H](CCCCNC(=O)COCCOCCOCCOCCOCCNC(=O)CCC[C@H](NC(=O)CCCCCCCCCCCCCCCCCCC(=O)O)C(=O)O)NC(=O)[C@H](C)NC(=O)[C@H](CCCCN)NC(=O)[C@H](CCCCN)NC(=O)[C@H](CCC(=O)O)NC(=O)[C@H](CC(=O)O)NC(=O)[C@H](CC(C)C)NC(=O)[C@H](Cc1ccc(O)cc1)NC(=O)[C@H](CCCCN)NC(=O)[C@H](CO)NC(=O)[C@H](Cc1ccc(O)cc1)NC(=O)[C@H](CC(=O)O)NC(=O)[C@H](CO)NC(=O)[C@@H](NC(=O)C(C)(Cc1ccccc1F)NC(=O)[C@@H](NC(=O)CNC(=O)[C@H](CCC(N)=O)NC(=O)C(C)(C)NC(=O)[C@@H](N)Cc1c[nH]cn1)[C@@H](C)O)[C@@H](C)O)C(C)C)C(=O)N[C@@H](CCC(=O)O)C(=O)NCCCCC(=O)N1CCC[C@H]1C(=O)N[C@@H](CO)C(=O)N[C@@H](CO)C(=O)NCC(=O)N[C@@H](C)C(=O)N1CCC[C@H]1C(=O)N1CCC[C@H]1C(=O)N1CCC[C@H]1C(=O)N[C@@H](CO)C(N)=O` (some centres unmarked) [Compound 10]: in data set [3], the half-life is 136 h and the half-lives entry was “greater than 100 hours”. Moreover, in data set [1], the EC50 worked out at 0.0755 nM. Besides, the EC50 in data set [2] is 1.2 nM.

On to `CC(C)C[C@H](NC(=O)[C@H](CC(C)C)NC(=O)[C@H](Cc1c[nH]c2ccccc12)NC(=O)[C@H](CCC(=O)O)NC(=O)[C@@H](NC(=O)[C@H](Cc1ccccc1)NC(=O)[C@H](CCC(=O)O)NC(=O)[C@H](CCCCNC(=O)COCCOCCOCCOCCOCCNC(=O)CCC[C@H](NC(=O)CCCCCCCCCCCCCCCCCCC(=O)O)C(=O)O)NC(=O)[C@H](C)NC(=O)[C@H](CCCCN)NC(=O)[C@H](CCCCN)NC(=O)[C@H](CCC(=O)O)NC(=O)[C@H](CC(=O)O)NC(=O)[C@H](CC(C)C)NC(=O)[C@H](Cc1ccc(O)cc1)NC(=O)[C@H](CCCCN)NC(=O)[C@H](CO)NC(=O)[C@H](Cc1ccc(O)cc1)NC(=O)[C@H](CC(=O)O)NC(=O)[C@H](CO)NC(=O)[C@@H](NC(=O)C(C)(Cc1ccccc1)NC(=O)[C@@H](NC(=O)CNC(=O)[C@H](CCC(N)=O)NC(=O)C(C)(C)NC(=O)[C@@H](N)Cc1c[nH]cn1)[C@@H](C)O)[C@@H](C)O)C(C)C)C(=O)N[C@@H](CCC(=O)O)C(=O)NCCCCC(=O)N1CCC[C@H]1C(=O)N[C@@H](CO)C(=O)N[C@@H](CO)C(=O)NCC(=O)N[C@@H](C)C(=O)N1CCC[C@H]1C(=O)N1CCC[C@H]1C(=O)N1CCC[C@H]1C(=O)N[C@@H](CO)C(N)=O` (some centres unmarked) [Compound 6], for which, in data set [3], the half-life is 125 h and the half-lives result is given as “greater than 100 hours”. In addition, the EC50 in data set [1] is 0.0809 nM. For the same compound, the EC50 in data set [2] came to 2.1 nM.

In the case of `CC(C)C[C@H](NC(=O)[C@H](CC(C)C)NC(=O)[C@H](Cc1c[nH]c2ccccc12)NC(=O)[C@H](CCC(=O)O)NC(=O)[C@@H](NC(=O)[C@H](Cc1ccccc1)NC(=O)[C@H](CCC(=O)O)NC(=O)[C@H](CCCCNC(=O)COCCOCCNC(=O)COCCOCCNC(=O)CC[C@H](NC(=O)CCCCCCCCCCCCCCCCCCC(=O)O)C(=O)O)NC(=O)[C@H](C)NC(=O)[C@H](CCCCN)NC(=O)[C@H](CCCCN)NC(=O)[C@H](CCC(=O)O)NC(=O)[C@H](CC(=O)O)NC(=O)[C@H](CC(C)C)NC(=O)[C@H](Cc1ccc(O)cc1)NC(=O)[C@H](CCCCN)NC(=O)[C@H](CO)NC(=O)[C@H](Cc1ccc(O)cc1)NC(=O)[C@H](CC(=O)O)NC(=O)[C@H](CO)NC(=O)[C@@H](NC(=O)C(C)(Cc1ccccc1F)NC(=O)[C@@H](NC(=O)CNC(=O)[C@H](CCC(N)=O)NC(=O)C(C)(C)NC(=O)[C@@H](N)Cc1c[nH]cn1)[C@@H](C)O)[C@@H](C)O)C(C)C)C(=O)N[C@@H](CCC(=O)O)C(=O)NCCCCC(=O)N1CCC[C@H]1C(=O)N[C@@H](CO)C(=O)N[C@@H](CO)C(=O)NCC(=O)N[C@@H](C)C(=O)N1CCC[C@H]1C(=O)N1CCC[C@H]1C(=O)N1CCC[C@H]1C(=O)N[C@@H](CO)C(N)=O` (some centres unmarked) [Compound 15], the figures for the EC50 in data set [1] and in data set [2] were 0.0835 nM and 1.8 nM, respectively.

On to `CC(C)C[C@H](NC(=O)[C@H](CC(C)C)NC(=O)[C@H](Cc1c[nH]c2ccccc12)NC(=O)[C@H](CCC(=O)O)NC(=O)[C@@H](NC(=O)[C@H](Cc1ccccc1)NC(=O)[C@H](CCC(=O)O)NC(=O)[C@H](CCCCNC(=O)COCCOCCOCCOCCOCCNC(=O)CCCC[C@H](NC(=O)CCCCCCCCCCCCCCCCCCC(=O)O)C(=O)O)NC(=O)[C@H](C)NC(=O)[C@H](CCCCN)NC(=O)[C@H](CCCCN)NC(=O)[C@H](CCC(=O)O)NC(=O)[C@H](CC(=O)O)NC(=O)[C@H](CC(C)C)NC(=O)[C@H](Cc1ccc(O)cc1)NC(=O)[C@H](CCCCN)NC(=O)[C@H](CO)NC(=O)[C@H](Cc1ccc(O)cc1)NC(=O)[C@H](CC(=O)O)NC(=O)[C@H](CO)NC(=O)[C@@H](NC(=O)C(C)(Cc1ccccc1)NC(=O)[C@@H](NC(=O)CNC(=O)[C@H](CCC(N)=O)NC(=O)C(C)(C)NC(=O)[C@@H](N)Cc1c[nH]cn1)[C@@H](C)O)[C@@H](C)O)C(C)C)C(=O)N[C@@H](CCC(=O)O)C(=O)NCCCCC(=O)N1CCC[C@H]1C(=O)N[C@@H](CO)C(=O)N[C@@H](CO)C(=O)NCC(=O)N[C@@H](C)C(=O)N1CCC[C@H]1C(=O)N1CCC[C@H]1C(=O)N1CCC[C@H]1C(=O)N[C@@H](CO)C(N)=O` (some centres unmarked) [Compound 7], for which the EC50 turned out to be 0.0914 nM in data set [1] and 2.3 nM in data set [2].
